Measurements published in patent publication US20200377496A1, “INDOLE AND BENZIMIDAZOLE DERIVATIVES AS DUAL 5-HT2A and 5-HT6 RECEPTOR ANTAGONISTS” (ADAMED PHARMA, S.A., priority 2018, published 2020).
Like-named read-outs stand apart in the source and are kept apart here.

How the values were obtained:
human GPCR 5-HT2A = human GPCR 5-HT2A (Homo sapiens, UniProt P28223); assay: Cellular aequorin-based functional assay, 5-HT2A; type: cell-based; settings: for 5-HT2A AGO EC50 [nM]: agonist mode, CHO-K1 aequorin cells
Sequence of human GPCR 5-HT2A (P28223 whole entry): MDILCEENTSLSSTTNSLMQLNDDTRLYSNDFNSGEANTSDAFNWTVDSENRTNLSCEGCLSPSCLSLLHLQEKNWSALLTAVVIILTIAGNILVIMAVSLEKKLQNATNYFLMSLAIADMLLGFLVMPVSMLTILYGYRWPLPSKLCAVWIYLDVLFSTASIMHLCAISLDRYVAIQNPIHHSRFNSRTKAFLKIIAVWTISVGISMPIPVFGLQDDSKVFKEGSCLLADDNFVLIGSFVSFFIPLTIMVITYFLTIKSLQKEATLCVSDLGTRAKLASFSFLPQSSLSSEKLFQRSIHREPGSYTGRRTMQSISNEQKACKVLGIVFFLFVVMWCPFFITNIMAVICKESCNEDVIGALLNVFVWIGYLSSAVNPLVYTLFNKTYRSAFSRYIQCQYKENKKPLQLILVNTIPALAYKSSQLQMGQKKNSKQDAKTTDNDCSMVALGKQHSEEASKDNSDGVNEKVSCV
Description: (§1) Preparation of Solutions of Test and Reference Compounds.
(§2) 1 mM stock solutions of the tested compounds were prepared in DMSO. Serial dilutions were prepared in 96-well microplate in assay buffers using automated pipetting system epMotion 5070 (Eppendorf). Two independent experiments in duplicates were performed and 6 to 10 concentrations were tested.
(§3) 5-HT2A and 5-HT6 Functional Activity Assays.
(§4) Cellular aequorin-based functional assays were performed with γ-irradiated recombinant CHO-K1 cells expressing mitochondrially-targeted Aequorin, human GPCR (5-HT2A or 5-HT6) and the promiscuous G protein α16 (PerkinElemer). Assays were performed according to the standard protocol provided by the manufacturer. After thawing, cells were transferred to assay buffer (DMEM/HAM's F12 with 0.1% protease-free BSA) and centrifuged. Cell pellet was resuspended in assay buffer and coelenterazine h was added at final concentrations of 5 μM. Cell suspension was incubated at 21° C., protected from light with constant agitation, for 4 hours and then diluted with assay buffer to a concentration of 250,000 cells/ml. After 1 hour incubation 50 yl cell suspension was dispensed using automatic injectors built in radiometric and luminescence plate counter MicroBeta2 LumiJET (PerkinElmer, USA) into white opaque 96-well microplate preloaded with tested compounds. Immediate light emission generated following calcium mobilization was recorded for 30-60 seconds. In antagonist mode, after 15-30 minutes incubation reference agonist was added to the above assay mix and light emission was recorded again. Final concentration of reference agonist was equal EC80: serotonin 40 nM for 5-HT6 receptor and α-methylserotonin 30 nM for 5-HT2A receptor. The assays were performed in the agonist mode (5-HT6 AGO and 5-HT2A AGO) as well as antagonist mode (5-HT6 ANT and 5-HT2A ANT).
(§5) IC50 and EC50 were determined by non-linear regression analysis using GraphPad Prism 6.0 software. The log IC50 was used to obtain the Kb by applying the Cheng-Prusoff approximation.

5-HT6 receptors = 5-HT6 receptors (Homo sapiens, UniProt P50406); assay: 5-HT6 receptor binding assay ([3H]-LSD radioligand); settings: membranes from CHO-K1 cells with human 5-HT6 receptor, [3H]-LSD 1 nM
Sequence of 5-HT6 receptors (P50406 whole entry): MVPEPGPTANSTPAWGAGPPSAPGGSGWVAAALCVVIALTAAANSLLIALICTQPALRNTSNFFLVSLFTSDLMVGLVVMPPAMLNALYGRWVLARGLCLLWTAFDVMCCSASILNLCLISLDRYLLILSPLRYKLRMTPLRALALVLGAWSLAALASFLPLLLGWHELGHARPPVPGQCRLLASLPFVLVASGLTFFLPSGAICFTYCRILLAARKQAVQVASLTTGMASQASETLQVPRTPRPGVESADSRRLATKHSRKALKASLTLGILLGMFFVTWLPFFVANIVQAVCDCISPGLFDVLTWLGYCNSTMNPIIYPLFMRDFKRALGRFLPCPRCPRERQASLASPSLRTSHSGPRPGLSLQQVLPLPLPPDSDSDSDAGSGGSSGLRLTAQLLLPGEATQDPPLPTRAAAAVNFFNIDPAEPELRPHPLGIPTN
Description: as §1
(§6) 1 mM stock solutions of tested compounds were prepared in DMSO. Serial dilutions of compounds were prepared in 96-well microplate in assay buffers using automated pipetting system epMotion 5070 (Eppendorf). Each compound was tested in 10 concentrations from 1.0E-6 to 1.0E-11 M (final concentration).
5-HT6 Receptor Binding Assay.
Radioligand binding was performed using membranes from CHO-K1 cells stably transfected with the human 5-HT6 receptor (PerkinElmer). All assays were carried out in duplicates. 50 μl working solution of the tested compounds, 50 μl [3H]-LSD (final concentration 1 nM) and 150 μl diluted membranes (8 μg protein per well) prepared in assay buffer (50 mM Tris, pH 7.4, 10 mM MgCl2, 0.1 mM EDTA) were transferred to polypropylene 96 well microplate using 96-wells pipetting station Rainin Liquidator (MettlerToledo). Methiothepin (10 μM) was used to define nonspecific binding. Microplate was covered with a sealing tape, mixed and incubated for 60 minutes at 37° C. The reaction was terminated by rapid filtration through GF/A filter mate presoaked with 0.5% polyethyleneimine for 30 minutes. Ten rapid washes with 200 μl 50 mM Tris buffer (4° C., pH 7.4) were performed using automated harvester system Harvester-96 MACH III FM (Tomtec). The filter mates were dried at 37° C. in forced air fan incubator and then solid scintilator MeltiLex was melted on filter mates at 90° C. for 5 minutes. Radioactivity was counted in MicroBeta2 scintillation counter (PerkinElmer). Data were fitted to a one-site curve-fitting equation with Prism 6 (GraphPad Software) and Ki values were estimated from the Cheng-Prusoff equation.

human 5-HT2A receptor = human 5-HT2A receptor (Homo sapiens, UniProt P28223); assay: 5-HT2A receptor binding assay ([3H]-ketanserin radioligand)
Sequence of human 5-HT2A receptor (P28223 whole entry): as the sequence (P28223 whole entry) above
Description: as §1, §6
5-HT2A Receptor Binding Assay.
Radioligand binding was performed using membranes from CHO K1 cells stably transfected with the human 5-HT2A receptor (PerkinElmer). All assays were carried out in duplicates. 50 μl working solution of the tested compounds, 50 μl [3H]-ketanserin (final concentration 1 nM) and 150 μl diluted membranes (7 μg protein per well) prepared in assay buffer (50 mM Tris, pH 7.4, 4 mM CaCl2, 0.1% ascorbic acid) were transferred to polypropylene 96-well microplate using 96-wells pipetting station Rainin Liquidator (MettlerToledo). Mianserin (10 μM) was used to define nonspecific binding. Microplate was covered with a sealing tape, mixed and incubated for 60 minutes at 27° C. The reaction was terminated by rapid filtration through GF/B filter mate presoaked with 0.5% polyethyleneimine for 30 minutes. Ten rapid washes with 200 μl 50 mM Tris buffer (4° C., pH 7.4) were performed using automated harvester system Harvester-96 MACH III FM (Tomtec). The filter mates were dried at 37° C. in forced air fan incubator and then solid scintilator MeltiLex was melted on filter mates at 90° C. for 5 minutes. Radioactivity was counted in MicroBeta2 scintillation counter (PerkinElmer). Data were fitted to a one-site curve-fitting equation with Prism 6 (GraphPad Software) and Ki values were estimated from the Cheng-Prusoff equation.

human GPCR 5-HT6 = human GPCR 5-HT6 (Homo sapiens, UniProt P50406); assay: Cellular aequorin-based functional assay, 5-HT6; type: cell-based; settings: for 5-HT6 AGO EC50 [nM]: agonist mode, CHO-K1 aequorin cells; for Kb: antagonist mode, reference agonist serotonin 40 nM (EC80), read-out: 5-HT6 ANT Kb
Sequence of human GPCR 5-HT6 (P50406 whole entry): as the sequence (P50406 whole entry) above
Description: as §1, §2, §3, §4, §5

[1] = antagonist mode, reference agonist α-methylserotonin 30 nM (EC80), read-out: 5-HT2A ANT Kb
[2] = membranes from CHO K1 cells with human 5-HT2A receptor, [3H]-ketanserin 1 nM, read-out: 5-HT2A Ki

| Structure (SMILES) | Kb (human GPCR 5-HT2A) [nM] | 5-HT2A AGO EC50 [nM] (human GPCR 5-HT2A) | Ki (5-HT6 receptors) [nM] | Ki (human 5-HT2A receptor) [nM] | 5-HT6 AGO EC50 [nM] (human GPCR 5-HT6) | Kb (human GPCR 5-HT6) [nM] | Kb (human GPCR 5-HT2A; [1]) [nM] | Ki (human 5-HT2A receptor; [2]) [nM] |
| --- | --- | --- | --- | --- | --- | --- | --- | --- |
| FC(F)(F)c1cc2c(N3CCNCC3)cccc2n1Cc1ccsc1 [Compound 31, 4-(piperazin-1-yl)-1-(thiophen-3-ylmethyl)-2-(trifluoromethyl)-1H-indole] | 16 | N.C. | 0.11 | 1.5 | N.C. | 0.2 |  |  |
| Cc1ccc(Cn2c(C(F)(F)F)cc3c(N4CCNCC4)cccc32)s1 [Compound 29, 1-[(5-methylthiophen-2-yl)methyl]-4-(piperazin-1-yl)-2-(trifluoromethyl)-1H-indole] | 9.8 | N.C. | 0.11 | 0.37 | N.C. | 0.051 |  |  |
| Fc1cc(Cn2c(C(F)(F)F)cc3c(N4CCNCC4)cccc32)ccc1Cl [Compound 16, 1-(4-chloro-3-fluorobenzyl)-4-(piperazin-1-yl)-2-(trifluoromethyl)-1H-indole] |  | N.C. | 0.62 |  | N.C. | 4.4 | 55 | 0.82 |
| CN1CCN(c2cccc3c2cc(C(F)(F)F)n3Cc2ccc(Cl)c(F)c2)CC1 [Compound 14, 1-(4-chloro-3-fluorobenzyl)-4-(4-methylpiperazin-1-yl)-2-(trifluoromethyl)-1H-indole] |  | N.C. | 0.65 |  | N.C. | 5.5 | 59 | 0.39 |
| Fc1cccc(Cn2c(C(F)(F)F)cc3c(N4CCNCC4)cccc32)c1 [Compound 19, 1-(3-fluorobenzyl)-4-(piperazin-1-yl)-2-(trifluoromethyl)-1H-indole] | 21 | N.C. | 0.35 | 1.3 | N.C. | 0.14 |  |  |
| Cc1ccc(Cn2c(C(F)(F)F)cc3c(N4CCNCC4)cccc32)o1 [Compound 28, 1-[(5-methylfuran-2-yl)methyl]-4-(piperazin-1-yl)-2-(trifluoromethyl)-1H-indole] | 16 | N.C. | 4 | 0.48 | N.C. | 0.25 |  |  |
| CN1CCN(c2cccc3c2nc(C(F)(F)F)n3Cc2ccccc2)CC1 [Compound 2, 1-benzyl-4-(4-methylpiperazin-1-yl)-2-(trifluoromethyl)-1H-benzimidazole] |  |  | 2.2 |  |  |  |  | 3.1 |
| CN1CCN(c2cccc3c2cc(C(F)(F)F)n3Cc2cccc(Cl)c2)CC1 [Compound 27, 1-(3-chlorobenzyl)-4-(4-methylpiperazin-1-yl)-2-(trifluoromethyl)-1H-indole] |  | N.C. |  |  | N.C. | 0.31 | 56 |  |
| Fc1cccc(Cn2c(C(F)(F)F)nc3c(N4CCNCC4)cccc32)c1 [Compound 7, 1-(3-fluorobenzyl)-4-(piperazin-1-yl)-2-(trifluoromethyl)-1H-benzimidazole] |  | N.C. | 1.6 |  | N.C. | 1.9 | 22 | 2.9 |
| FC(F)(F)c1cc2c(N3CCNCC3)cccc2n1Cc1cccc(Cl)c1 [Compound 20, 1-(3-chloroobenzyl)-4-(piperazin-1-yl)-2-(trifluoromethyl)-1H-indole] | 53 | N.C. |  | 2.2 | N.C. | 1.2 |  |  |
| FC(F)(F)c1cc2c(N3CCNCC3)cccc2n1Cc1cccs1 [Compound 30, 4-(piperazin-1-yl)-1-(thiophen-2-ylmethyl)-2-(trifluoromethyl)-1H-indole] | 5.5 | N.C. | 0.071 | 0.33 | N.C. | 0.65 |  |  |
| FC(F)(F)c1nc2c(N3CCNCC3)cccc2n1Cc1cccc(Cl)c1 [Compound 6, 1-(3-chlorobenzyl)-4-(piperazin-1-yl)-2-(trifluoromethyl)-1H-benzimidazole] |  |  | 1.7 |  |  |  |  | 3.8 |
| CN1CCN(c2cccc3c2cc(C(F)(F)F)n3Cc2ccc(Cl)c(Cl)c2)CC1 [Compound 13, 1-(3,4-dichlorobenzyl)-4-(4-methylpiperazin-1-yl)-2-(trifluoromethyl)-1H-indole] |  | N.C. | 0.98 |  | N.C. | 9.1 |  | 2.6 |
| CN1CCN(c2cccc3c2cc(C(F)(F)F)n3Cc2ccc(F)c(F)c2)CC1 [Compound 22, 1-(3,4-difluorobenzyl)-4-(4-methylpiperazin-1-yl)-2-(trifluoromethyl)-1H-indole] |  | N.C. |  |  | N.C. | 4.8 | 26 | 0.45 |
| CN1CCN(c2cccc3c2cc(C(F)(F)F)n3Cc2ccco2)CC1 [Compound 21, 1-(furan-2-ylmethyl)-4-(4-methylpiperazin-1-yl)-2-(trifluoromethyl)-1H-indole] |  | N.C. | 0.18 |  | N.C. | 0.27 | 4.3 |  |
| COc1cccc(Cn2c(C(F)(F)F)cc3c(N4CCNCC4)cccc32)c1 [Compound 23, 1-(3-methoxybenzyl)-4-(piperazin-1-yl)-2-(trifluoromethyl)-1H-indole] |  | N.C. |  |  | N.C. | 0.26 | 28 |  |
| COc1cccc(Cn2c(C(F)(F)F)cc3c(N4CCN(C)CC4)cccc32)c1 [Compound 18, 1-(3-methoxybenzyl)-4-(4-methylpiperazin-1-yl)-2-(trifluoromethyl)-1H-indole] |  |  | 0.27 |  |  |  |  | 4.2 |
| FC(F)(F)c1nc2c(N3CCNCC3)cccc2n1Cc1ccc(Cl)c(Cl)c1 [Compound 8, 1-(3,4-dichlorobenzyl)-4-(piperazin-1-yl)-2-(trifluoromethyl)-1H-benzo[d]imidazole] |  |  | 2 |  |  |  |  | 2.9 |
| CN1CCN(c2cccc3c2cc(C(F)(F)F)n3Cc2ccccc2)CC1 [Compound 26, 1-benzyl-4-(4-methylpiperazin-1-yl)-2-(trifluoromethyl)-1H-indole] |  |  | 0.087 |  |  |  |  | 0.91 |
